Measured values published in PubChem BioAssay AID179 (DTP/NCI, 2004).
Structures can show the parent of a compound that is named as a salt. Activity calls are given as the source filed them.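 Rule for the calls: active = compounds giving half or more protection of infected cells from virus-caused growth loss, again on retest; inactive = the rest.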 Where a SMILES comes first, the peptide text is derived from it. Bridges are numbered along the chain shown (N, C = ends). The star is where a group is joined. Tfa = O=C(C(F)(F)F)*

Test system: CEM cells HIV-1 protection, formazan growth assay
Assay: NCI AIDS Antiviral Assay
Details: for IC50: measured here: growth of uninfected CEM cells
How it was run: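 Steps: treat uninfected and HIV-1-infected human CEM cells at five drug levels; quantify growth by soluble formazan; retest any compound reaching 50% protection; classify actives from the retest.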

| SMILES | EC50 [µM] | IC50 [µM] | outcome |
| --- | --- | --- | --- |
| CC(C)C1=CC23CCC4C(C)(C(=O)O)CCCC4(C)C2CC1C1C(=O)N(c2ccc(Cc4ccc(N5C(=O)C6C7CC8C9(C)CCCC(C)(C(=O)O)C9CCC8(C=C7C(C)C)C6C5=O)cc4)cc2)C(=O)C13 (configuration not stated) | > 35.5 | 13.8 |  |
| O/N=C1\CCCC\C1=C/c1ccccc1 |  |  | inactive |
| COC1(OC)C=NNc2nccn21 | > 200 | > 200 |  |
| Cc1[nH]n(C(=O)Cc2ccccc2)c(=O)c1/C=C1\C(=O)C=Cc2ccccc21 | > 51.3 | > 51.3 |  |
| Cc1nn(C(=O)c2ccccc2O)c2c1C(c1ccccc1)SC(N)=N2 (configuration not stated) | > 2 | 0.417 |  |
| CC(C)=CC(=O)N1CCN(C(=O)C=C(C)C)CC1 | > 501 | > 501 |  |
| O=C(/C=C/c1ccccc1)Oc1cccc(O)c1 | > 200 | 5.01 |  |
| CCCCCCOC(=O)c1ccc(NC(=O)CN(CC)CC)cc1 | > 200 | 37.2 |  |
| COC(=O)/C(C#N)=C\n1c(=S)[nH]c2ccccc21 | > 200 | > 200 |  |
| CCC(C#N)N(Cc1ccc(CN(C(=O)c2ccccc2)C(C#N)CC)cc1)C(=O)c1ccccc1 (configuration not stated) | > 200 | 8.71 |  |
| Cc1c2ccccc2nc(CSc2ccccc2)[n+]1[O-] | 9.55 | 178 |  |
| C=CC1=CC2(O[Si](C(C)C)(C(C)C)C(C)C)CCC1C(COCc1ccccc1)C2C(=O)O (configuration not stated) | > 28.8 | 20 |  |
| OC(c1ccsc1)c1ccsc1 | > 200 | > 200 |  |
| CNC(=S)SSSC(=S)NC |  |  | inactive |
| O=C(O)C12C3CCC(CC3)C1(C(=O)O)C1CCC2C1 (configuration not stated) | > 200 | > 200 |  |
| NC(=S)N/N=C/c1cc(CN2CCOCC2)c(N)cn1 | > 200 | 10.5 |  |
| CCOC(=O)C1CSSCC(N)C(=O)N1 (stereo not drawn) (H-Cys-Cys-OEt; disulfide 1-2; configuration not given here) | > 200 | > 200 |  |
| COc1ccc(C2Oc3c(c(O)cc4c3[C@H](c3ccc(O)cc3O)[C@H](O)C(c3ccc(O)c(O)c3)O4)C[C@@H]2O)cc1O (some centres not stated) |  |  | inactive |
| COC(=O)C12C3C4(C(=O)OC)C1C1(C(=O)OC)C2C3(C(=O)OC)C41C(=O)N(C(C)C)C(C)C (configuration not stated) | > 200 | > 200 |  |
| COc1c(C)c(C/C=C(\C)CCCCO[Si](C(C)C)(C(C)C)C(C)C)c(OC)c2ccccc12 | > 200 | 53.7 |  |
| O=S(=O)(O)ON=C1c2ccccc2-c2ccccc21 | > 200 | 195 |  |
| CN(/N=C\c1ccc2ccccc2c1)C1=NCCN1 | > 200 | 22.9 |  |

| SMILES | EC50 [µM] | IC50 [µM] | outcome |
| --- | --- | --- | --- |
| c1csc(-c2ccc(-c3ccc(-c4cccs4)s3)s2)c1 | > 200 | > 200 |  |
| O=C(O)CC(NC(=O)C(F)(F)F)C(=O)NC(Cc1ccc(O)cc1)C(=O)O (stereo not drawn) (Tfa-Asp-Tyr-OH; configuration not given here) | > 200 | > 200 |  |
| O=[N+]([O-])c1ccc(C(Cl)S(=O)(=O)c2ccccc2)cc1 (configuration not stated) | > 83.2 | 4.79 |  |
| O=C1Nc2cc3c(cc2C(=O)N2C/C(=N/O)CC12)OCO3 (configuration not stated) | > 324 | 191 |  |
| OC1(c2ccccc2)CSc2ncnn21 (configuration not stated) | 138 | > 200 |  |
| O=S(=O)(O)C(F)(F)C(F)(F)C(F)(F)C(F)(F)C(F)(F)C(F)(F)C(F)(F)C(F)(F)F | > 200 | > 200 |  |
| O=C(C(/C=N/C(=S)NCc1ccccc1)=C(/O)c1ccccc1)c1ccccc1 | > 200 | 30.9 |  |
| CCOC(=O)c1[nH]n(-c2ccccc2)c(=O)c1/C=N/C(=S)Nc1ccc(Cl)cc1Cl | > 200 | > 200 |  |
| NC(CCCNCc1ccccc1)C(=O)O (configuration not stated) | > 562 | > 562 |  |
| CCOC(=O)c1c(NC(=O)CCl)ssc1=S | > 200 | 50.1 |  |
| O=c1[nH]cc(N=Nc2ccc(S(=O)(=O)Nc3ccccn3)cc2)cc1O | > 200 | 87.1 |  |
| CCOC(=O)C(C(=O)OCC)S(C)(=O)=O | > 251 | > 251 |  |
| CN1C(=O)C(C)(O)c2ccccc21 (configuration not stated) | > 1410 | 550 |  |
| COC(=O)C1C(C(=O)OC)N(Cc2ccccc2)C(=O)N1Cc1ccccc1 (configuration not stated) | > 200 | 120 |  |
| BrCC[N+]12CCCN1CCC2 |  |  | inactive |
| S=c1ncc2n[nH]nc2[nH]1 | > 200 | > 200 |  |
| CN1C(=O)C23SSC1(C)C(=O)N2c1ccccc1C3(C)C (configuration not stated) | > 200 | 7.94 |  |
| Cn1cc(NC(=O)c2cc(NC(=O)c3cc(NC(=O)c4ccc(C(=O)Nc5cn(C)c(C(=O)Nc6cn(C)c(C(=O)Nc7cn(C)c(C(=O)NCCC(=N)N)n7)n6)n5)cc4)cn3C)cn2C)cc1C(=O)NCCC(=N)N | > 33.1 | 6.61 |  |
| CO/C(=C/C(=O)c1ccccc1)C(=O)c1ccccc1 | > 115 | 61.7 |  |
| NC(Cc1c[nH]c2ccccc12)P(=O)(O)O (configuration not stated) | > 200 | > 200 |  |
| COC(OC)C1OCC(n2cc(F)c(=O)[nH]c2=O)C1O (configuration not stated) | > 200 | > 200 |  |
| C=C1C(=O)OC2CC(C)C3CC(O)OC(OCC)C3(C)CC12 (configuration not stated) | > 83.2 | 15.5 |  |

| SMILES | EC50 [µM] | IC50 [µM] | outcome |
| --- | --- | --- | --- |
| CCOP(=O)(OCC)C(NC(=O)OCC(Cl)(Cl)Cl)n1nnc(C(=O)OC)c1C(=O)OC (configuration not stated) | > 200 | > 200 |  |
| O=C(CCc1nnc2s/c(=C\c3ccccc3Cl)c(=O)n12)Nc1cc(Cl)ccc1Cl | > 525 | > 525 |  |
| CC1(C)OC2OC3C4COC(SSC56OCC(O5)C5OC7OC(C)(C)OC7C5O6)(O4)OC3C2O1 (configuration not stated) | > 200 | 26.3 |  |
| O=c1c(-c2cccc3ccccc23)c(-c2cccc3ccccc23)c1=O |  |  | inactive |
| COc1cccc(Nc2nc3c([nH]2)c(=O)n(C)c(=O)n3C)c1 | > 170 | 89.1 |  |
| CC(c1ccccc1)n1cncc1C(=O)NN1CCN(C)CC1 (configuration not stated) | > 200 | > 200 |  |
| S=C1CSc2c(cnc3ccccc23)N1 | > 200 | 105 |  |
| Cc1cc(S(=O)(=O)Nc2n[nH]c(Nc3ccccc3)n2)c(S)cc1Cl | 170 | 275 |  |
| COc1ccc(C2C(C#N)=C(S)N(C3OC(CO)C(O)C(O)C3O)C(c3ccccc3)=C2C(C)=O)cc1 (configuration not stated) | > 200 | 89.1 |  |
| COC(=O)C(Cc1c[nH]c2ccccc12)NP(=O)(O)OCC1OC(n2ccc(N)nc2=O)C(O)C1O (configuration not stated) | > 200 | 5.25 |  |
| CCCCCCN1CCN(Cc2ccc(N(CC)CC)cc2)C(=O)C1=O | > 200 | 0.977 |  |
| COc1ccc(/C=C(\C#N)c2ccc(OC)c(OC)c2)cc1 | > 2 | 0.257 |  |
| CCN(CC)CCOc1cccc(NC(=O)CN(CC)CC)c1 | > 200 | 81.3 |  |
| CCOC(=O)c1cnc2c(ccc3[nH]cccc32)c1=O | > 26.9 | > 26.9 |  |
| Cn1c(-c2cccs2)cc(-c2cccs2)c1-c1ccco1 | > 200 | 30.2 |  |
| CC(=O)C1CCN(c2ccccc2)C1 (configuration not stated) |  |  | inactive |
| O=C1Nc2ccc(Br)cc2/C1=c1/sc2nc3ccccc3n2c1=O | > 50.1 | 42.7 |  |
| N#CC1(C#N)C(c2ccc(C3C(C#N)(C#N)C3(C#N)C#N)cc2)C1(C#N)C#N |  |  | inactive |
| NC(=O)NCCCC(NC(=O)OCCCCn1ccc(=O)[nH]c1=O)C(=O)O (configuration not stated) | > 200 | > 200 |  |
| Cc1ccc(S(=O)(=O)Nn2c(S)c(C#N)c(-c3ccc([N+](=O)[O-])cc3)c(C#N)c2=O)cc1 | > 200 | 30.9 |  |
| Cc1nc(Nc2ccccc2)sc1C(=O)CC(=O)C(=O)NC12CC3CC(CC(C3)C1)C2 | > 81.3 | > 81.3 |  |
| Cc1noc(NS(=O)(=O)c2ccc(NC(=S)/N=C/C(C(=O)c3ccccc3)=C(\O)c3ccccc3)cc2)c1C | > 200 | 120 |  |

| SMILES | EC50 [µM] | IC50 [µM] | outcome |
| --- | --- | --- | --- |
| O=C(O)CSc1cc(-c2ccc(Cl)cc2)s[s+]1 | > 200 | > 200 |  |
| CN(C)CC1CCCC/C1=N/OC(=O)c1ccc(Cl)cc1 (configuration not stated) |  |  | inactive |
| CC1=C(O)C(=O)C2C(=O)C1C(C)C2c1ccc(C)cc1 (configuration not stated) | > 251 | > 251 |  |
| Cc1oc(NC(=O)C(=O)O)c(C#N)c1C | > 200 | > 200 |  |
| O=C1C=C(c2c(O)ccc3ccccc23)c2cc(O)ccc2C1=O | > 112 | 6.61 |  |
| NC(CSS(=O)(=O)O)=NCCc1ccccn1 | > 200 | > 200 |  |
| COc1ccc(C2c3cc(OC)c(OC)cc3C(Cc3ccc([N+](=O)[O-])cc3)C2c2ccc([N+](=O)[O-])cc2)cc1OC (configuration not stated) | > 2.51 | > 2.51 |  |
| CNc1ccc(Cl)cc1C(=O)N1CCC[C@H]1CO | > 200 | > 200 |  |
| CCOC(=O)C1=CC(C)(C(=O)OCC)Nc2c(nc(OC)n(C)c2=O)N1 (configuration not stated) | > 200 | > 200 |  |
| NS(=O)(=O)c1ccc(NC(=O)c2cccc3cc4ccccc4nc23)cc1 | > 79.4 | 4.79 |  |
| O=C(Nc1ccc(OCC2=NCCN2)cc1)c1ccc(C(=O)Nc2ccc(OCC3=NCCN3)cc2)cc1 | > 200 | > 200 |  |
| CCCCCCCCCCCCCCCC(=O)NC(Cc1c[nH]c2ccccc12)C(=O)O (configuration not stated) | > 200 | 50.1 |  |
| CS(=O)(=O)c1ccc(N2CC2)nn1 | > 200 | 89.1 |  |
| CN(C)c1ccc(-c2c(C#N)c(N)[nH]c(=S)c2C#N)cc1 | > 126 | 50.1 |  |
| N#Cc1c(/N=C/c2cc(Cl)cc(Cl)c2O)sc2c1CCC2 | > 200 | > 200 |  |
| Clc1cccc(C2ON=C(c3ccccc3)N2C23CC4CC(CC(C4)C2)C3)c1Cl (configuration not stated) | > 200 | > 200 |  |
| C(=C(Sc1ccccc1)Sc1ccccc1)C(Sc1ccccc1)c1ccccc1 (configuration not stated) | > 200 | > 200 |  |
| CC(C)(Cc1ccccc1)NC1=NCCO1 | > 200 | > 200 |  |
| CCOP(=O)(OCC)/C(C#N)=C/c1ccccc1Cl |  |  | inactive |
| Cc1ccc(N=N/C(=N/NC(=O)c2ccccc2)c2ccc(N(CCC#N)CCC#N)cc2C)cc1 | > 200 | 14.8 |  |
| COc1ccc2c3c([nH]c2c1)CCN(Cc1ccccc1)C3 | > 200 | 45.7 |  |
| S=C(c1c[nH]c2ccccc12)N1CCCCC1 | > 200 | 44.7 |  |
